pIC50: −log10 of the molar value.
Test system: CN0375-F725-PDC KRAS spheroid viability
Test: Anticancer human tumor CN0375-F725-PDC patient-derived colon carcinoma cell line growth inhibition [KRAS2]
Conditions: spheroids with HUVEC and MSC; for pIC50: curve of first compound; for viability, T/C: stronger effect = lower value
Summary of the method: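 Combination screen of spheroid viability in tumor-cell co-cultures with endothelial (HUVEC) and mesenchymal stem cell stroma. Each agent was tested in half-log dilutions, topping at clinical Cmax or at 10 microM without a known Cmax.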

[1] = second compound 0.1 µM, first compound 0.0316 µM
[2] = second compound 0.316 µM, first compound 0.0316 µM
[3] = second compound 1 µM, first compound 0.0316 µM
[4] = second compound 3.16 µM, first compound 0.0316 µM
[5] = second compound 10 µM, first compound 0.0316 µM
[6] = second compound 0.1 µM, first compound 0.1 µM
[7] = second compound 0.1 µM, first compound 0.316 µM
[8] = second compound 0.1 µM, first compound 1 µM
[9] = second compound 0.1 µM, first compound 3.16 µM
[10] = second compound 0.1 µM, first compound 10 µM
[11] = second compound 0.316 µM, first compound 0.1 µM
[12] = second compound 0.316 µM, first compound 0.316 µM
[13] = second compound 0.316 µM, first compound 1 µM
[14] = second compound 0.316 µM, first compound 3.16 µM
[15] = second compound 0.316 µM, first compound 10 µM
[16] = second compound 1 µM, first compound 0.1 µM
[17] = second compound 1 µM, first compound 0.316 µM
[18] = second compound 1 µM, first compound 1 µM
[19] = second compound 1 µM, first compound 3.16 µM
[20] = second compound 1 µM, first compound 10 µM
[21] = second compound 3.16 µM, first compound 0.1 µM
[22] = second compound 3.16 µM, first compound 0.316 µM
[23] = second compound 3.16 µM, first compound 1 µM
[24] = second compound 3.16 µM, first compound 3.16 µM
[25] = second compound 3.16 µM, first compound 10 µM
[26] = second compound 10 µM, first compound 0.1 µM
[27] = second compound 10 µM, first compound 0.316 µM
[28] = second compound 10 µM, first compound 1 µM
[29] = second compound 10 µM, first compound 3.16 µM
[30] = second compound 10 µM, first compound 10 µM
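Note: spheroids exposed to agents for 7 days.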

Q: What does the source list for `CC(=O)Nc1cccc(-n2c(=O)n(C3CC3)c(=O)c3c(Nc4ccc(I)cc4F)n(C)c(=O)c(C)c32)c1` + COc1cc2nc(C)nc(NC(C)c3cc(N)cc(C(F)(F)F)c3)c2cc1OC1CCOC1?
A: pIC50 (second compound 0.1 µM): 8.39; pIC50 (second compound 0.316 µM): 8.49; pIC50 (second compound 1 µM): 8.73; pIC50 (second compound 3.16 µM): 9.04; pIC50 (second compound 10 µM): > 10.00; viability, T/C (second compound 0.1 µM, first compound 0.0001 µM): 88.3%; viability, T/C (second compound 0.1 µM, first compound 0.000316 µM): 85.3%; viability, T/C (second compound 0.1 µM, first compound 0.001 µM): 65%; viability, T/C (second compound 0.1 µM, first compound 0.00316 µM): 51.6%; viability, T/C (second compound 0.1 µM, first compound 0.01 µM): 43.9%; viability, T/C [1]: 30.9%; viability, T/C (second compound 0.316 µM, first compound 0.0001 µM): 84.9%; viability, T/C (second compound 0.316 µM, first compound 0.000316 µM): 77.5%; viability, T/C (second compound 0.316 µM, first compound 0.001 µM): 60.7%; viability, T/C (second compound 0.316 µM, first compound 0.00316 µM): 49.7%; viability, T/C (second compound 0.316 µM, first compound 0.01 µM): 41.9%; viability, T/C [2]: 31.6%; viability, T/C (second compound 1 µM, first compound 0.0001 µM): 82.6%; viability, T/C (second compound 1 µM, first compound 0.000316 µM): 70.9%; viability, T/C (second compound 1 µM, first compound 0.001 µM): 54.6%; viability, T/C (second compound 1 µM, first compound 0.00316 µM): 44.1%; viability, T/C (second compound 1 µM, first compound 0.01 µM): 38.4%; viability, T/C [3]: 29.8%; viability, T/C (second compound 3.16 µM, first compound 0.0001 µM): 75.4%; viability, T/C (second compound 3.16 µM, first compound 0.000316 µM): 62.4%; viability, T/C (second compound 3.16 µM, first compound 0.001 µM): 49.3%; viability, T/C (second compound 3.16 µM, first compound 0.00316 µM): 36.4%; viability, T/C (second compound 3.16 µM, first compound 0.01 µM): 33.5%; viability, T/C [4]: 25.4%; viability, T/C (second compound 10 µM, first compound 0.0001 µM): 14%; viability, T/C (second compound 10 µM, first compound 0.000316 µM): 13.4%; viability, T/C (second compound 10 µM, first compound 0.001 µM): 9.44%; viability, T/C (second compound 10 µM, first compound 0.00316 µM): 3.96%; viability, T/C (second compound 10 µM, first compound 0.01 µM): 6.23%; viability, T/C [5]: 1.76%

Q: With `COC(=O)c1ccc2c(C(=Nc3ccc(N(C)C(=O)CN4CCN(C)CC4)cc3)c3ccccc3)c(O)[nH]c2c1` + COc1cc2nc(C)nc(NC(C)c3cc(N)cc(C(F)(F)F)c3)c2cc1OC1CCOC1 as the compound, how does the pIC50 (second compound 0.1 µM) read?
A: The pIC50 was 5.67.

Q: And the pIC50 (second compound 0.316 µM)?
A: Its pIC50 is 5.45.

Q: What about the pIC50 (second compound 1 µM) of the same compound?
A: Its pIC50 is 5.62.

Q: What about the pIC50 (second compound 3.16 µM) of the same compound?
A: Its pIC50 is 5.84.

Q: And the pIC50 (second compound 10 µM)?
A: Its pIC50 is greater than 7.50.

Q: And the viability, T/C [1]?
A: Its viability, T/C is 97%.

Q: What about the viability, T/C [6] of the same compound?
A: The viability, T/C was 102%.

Q: What about the viability, T/C [7] of the same compound?
A: The viability, T/C was 91.3%.

Q: And the viability, T/C [8]?
A: Its viability, T/C is 87.1%.

Q: And the viability, T/C [9]?
A: Its viability, T/C is 31.2%.

Q: And the viability, T/C [10]?
A: The viability, T/C was 0.21%.

Q: And the viability, T/C [2]?
A: The viability, T/C was 97.9%.

Q: What about the viability, T/C [11] of the same compound?
A: Its viability, T/C is 99.5%.

Q: What about the viability, T/C [12] of the same compound?
A: Its viability, T/C is 86.3%.

Q: And the viability, T/C [13]?
A: Its viability, T/C is 85.3%.

Q: What about the viability, T/C [14] of the same compound?
A: The viability, T/C was 55.4%.

Q: What about the viability, T/C [15] of the same compound?
A: Its viability, T/C is 0.5%.

Q: And the viability, T/C [3]?
A: The viability, T/C was 91.8%.

Q: What about the viability, T/C [16] of the same compound?
A: The viability, T/C was 91.5%.

Q: And the viability, T/C [17]?
A: The viability, T/C was 85%.

Q: And the viability, T/C [18]?
A: Its viability, T/C is 77%.

Q: And the viability, T/C [19]?
A: The viability, T/C was 41.6%.

Q: What about the viability, T/C [20] of the same compound?
A: The viability, T/C was 0.19%.

Q: What about the viability, T/C [4] of the same compound?
A: Its viability, T/C is 85.8%.

Q: And the viability, T/C [21]?
A: The viability, T/C was 78.8%.

Q: And the viability, T/C [22]?
A: The viability, T/C was 80.6%.

Q: What about the viability, T/C [23] of the same compound?
A: Its viability, T/C is 66.8%.

Q: And the viability, T/C [24]?
A: Its viability, T/C is 16.1%.

Q: What about the viability, T/C [25] of the same compound?
A: The viability, T/C was 0.48%.

Q: What about the viability, T/C [5] of the same compound?
A: Its viability, T/C is 18.3%.

Q: And the viability, T/C [26]?
A: Its viability, T/C is 18.9%.

Q: What about the viability, T/C [27] of the same compound?
A: The viability, T/C was 13.1%.

Q: And the viability, T/C [28]?
A: The viability, T/C was 9.52%.

Q: What about the viability, T/C [29] of the same compound?
A: Its viability, T/C is 1.91%.

Q: What about the viability, T/C [30] of the same compound?
A: Its viability, T/C is 0.15%.

Q: With `COc1cc(Nc2ncc3c(n2)-c2ccc(Cl)cc2C(c2c(F)cccc2OC)=NC3)ccc1C(=O)O` + COc1cc2nc(C)nc(NC(C)c3cc(N)cc(C(F)(F)F)c3)c2cc1OC1CCOC1 as the compound, how does the pIC50 (second compound 0.1 µM) read?
A: The pIC50 was less than 5.00.

Q: What about the pIC50 (second compound 0.316 µM) of the same compound?
A: The pIC50 was less than 5.00.

Q: And the pIC50 (second compound 1 µM)?
A: The pIC50 was less than 5.00.

Q: And the pIC50 (second compound 3.16 µM)?
A: Its pIC50 is less than 5.00.

Q: And the pIC50 (second compound 10 µM)?
A: The pIC50 was greater than 7.50.

Q: And the viability, T/C [1]?
A: Its viability, T/C is 95.9%.

Q: What about the viability, T/C [6] of the same compound?
A: Its viability, T/C is 93.2%.

Q: What about the viability, T/C [7] of the same compound?
A: Its viability, T/C is 88.8%.

Q: What about the viability, T/C [8] of the same compound?
A: The viability, T/C was 88.2%.

Q: And the viability, T/C [9]?
A: The viability, T/C was 87.3%.

Q: And the viability, T/C [10]?
A: The viability, T/C was 71.8%.

Q: What about the viability, T/C [2] of the same compound?
A: The viability, T/C was 97%.

Q: And the viability, T/C [11]?
A: Its viability, T/C is 97.6%.

Q: And the viability, T/C [12]?
A: Its viability, T/C is 90.5%.

Q: And the viability, T/C [13]?
A: Its viability, T/C is 87.8%.

Q: What about the viability, T/C [14] of the same compound?
A: Its viability, T/C is 83.1%.

Q: And the viability, T/C [15]?
A: Its viability, T/C is 71.8%.

Q: What about the viability, T/C [3] of the same compound?
A: Its viability, T/C is 91.7%.

Q: And the viability, T/C [16]?
A: The viability, T/C was 95.6%.

Q: What about the viability, T/C [17] of the same compound?
A: Its viability, T/C is 89.8%.

Q: And the viability, T/C [18]?
A: The viability, T/C was 85.1%.

Q: And the viability, T/C [19]?
A: The viability, T/C was 83.9%.

Q: What about the viability, T/C [20] of the same compound?
A: The viability, T/C was 69.4%.

Q: And the viability, T/C [4]?
A: The viability, T/C was 84.8%.

Q: And the viability, T/C [21]?
A: Its viability, T/C is 88.3%.

Q: And the viability, T/C [22]?
A: Its viability, T/C is 72.7%.

Q: And the viability, T/C [23]?
A: The viability, T/C was 79%.

Q: What about the viability, T/C [24] of the same compound?
A: Its viability, T/C is 75.9%.

Q: And the viability, T/C [25]?
A: Its viability, T/C is 64.6%.

Q: And the viability, T/C [5]?
A: The viability, T/C was 27.6%.

Q: What about the viability, T/C [26] of the same compound?
A: The viability, T/C was 15.6%.

Q: What about the viability, T/C [27] of the same compound?
A: The viability, T/C was 13.9%.

Q: What about the viability, T/C [28] of the same compound?
A: Its viability, T/C is 15.7%.

Q: What about the viability, T/C [29] of the same compound?
A: Its viability, T/C is 15.5%.

Q: And the viability, T/C [30]?
A: The viability, T/C was 7.94%.

— PubChem BioAssay AID1963860 (Molecular Pharmacology Branch, DTP, NCI, 2024)
